# Like-named read-outs stand apart in the source and are kept apart here.
# Target: AKAP-PKA interaction (Homo sapiens, UniProt P13861)
# Experiment: AKAP-PKA interaction (disruption) assays of Examples 1-3: alpha screen, surface plasmon resonance, ELISA (combined classification)
# Format: binding
# Details: for Activity in AKAP-PKA interaction assays (in words): assays of Examples 1-3
# Method: The inhibition of the interaction of the alpha RII subunit of protein kinase A with AKAP18-alpha by the compounds according to the invention is determined as follows:
# The experiment measures the suitability of candidate compounds for the inhibition of the interaction between AKAP and PKA. An AKAP-GST fusion construct is immobilized on glutathione donor beads and His-RII-alpha on Ni-chelate acceptor beads. To the extent that the partners interact, singlet oxygen from the donor beads becomes free and activates the fluorescence emission of the acceptor beads. The fluorescence emission determined in the microplate reader is proportional to the intensity of interaction of the protein partners. The IC50 is determined from the results of the measurement of several concentrations of one candidate compound.
# The details of the process were as follows: Two protein Solutions A and B are produced in a buffer (phosphate NaCl buffer, 0.1% polysorbate 80, 0.1% [=1 mg/ml BSA]). These contain (A) the histidine-6-tagged fusion construct RII-alpha-His (3.125 nmol/l) and (B) the glutathione-S-transferase-tagged fusion construct GST-AKAP18-alpha-d2-10 (6.25 nmol/l). One volume unit each of protein solution and bead suspension are incorporated, specifically Solution A of the His6-tagged protein with Ni-chelate bead suspension and Solution B of the GST-fusion protein with glutathione beads (Perkin Elmer Product No. 6765302), and in doing so the concentrations are selected according to the manufacturers information. The Mixtures A and B obtained are incubated for one hour at room temperature (RT) in the dark.
# Then, 5 μl of Mixture A is laid out for each hole on a 384-hole microtiter plate, and then to start with 0.5 μl of a solution of the candidate compound in DMSO is added and then 5 μl of Mixture B. The resulting reaction mixture is incubated 1 h at RT in the dark. Then, the reaction is tempered to 28.5° C., and the emitter intensity of the acceptor is determined in a microtiter plate reader after excitation of the donor at 680 nm.
# The relative inhibition of the AKAP-PKA interaction is calculated following the formula: 1−(xc−y)/(z−y) where: X=average of readings (n=3) at concentration c; Y=average of measurement data from bead-bead check (n=6); Z=average of measurement data from protein-protein check (n=6). Results:
# Surface plasmon resonance analyses for competition in solution were performed with streptavidin-coated sensor chips (GE Healthcare, Uppsala, Sweden). The N-terminal biotinylated peptide AKAP18d-L314E was used, which is a variant of the RH-binding domains of AKAP18δ (Hundsrucker et al., Biochem. J. 396, 297-306, [2006]). The binding of the regulatory subunit of the human PKAII-α or RII-β onto the peptide surface of the AKAP18δ-L314E, or the inhibition of this binding to RII by the compounds of the invention, was measured on a Biacaore 3000 machine (Biacore/GE Healthcare) as previously described (Henn et al., J Biol Chem 279, 26654-26665 [2004]). The compounds were injected for 60 sec at a flow rate of 30 μl/min, and the dissociation phase was measured for 180 sec.
# Multititer plates (Corning B.V. Life Sciences, Schiphol-Rijk, Netherlands) were coated with recombinantly produced PKA RIIα (15 ng/hole) by incubation with phosphate buffer containing protease inhibitors (1 h, 22° C.). The plate was then blocked with lactoprotein.
# GST-AKA7δ (Hundsrucker et al., Biochem. J. 396, 297-306, [2006]; 15 ng/well) was incubated with and without candidate compounds on the plate for 1 h at 22° C. After washing, it was incubated with antibodies (rabbit) against AKA7δ (A18δ3) and then with a peroxidase-conjugated antirabbit antibody and developed with dye substrate (LumiLight Western Blotting Substrate, Roche Diagnostics, Mannheim, Germany). Luminescence activity was determined in a microplate reader (GeniosPro, Tecan, Durham, N.C., United States) at 10 msec integration.
# [1] = class from IC50 values in assays of Examples 1, 2 or 3, read-out: Activity (IC50 class)
# [2] = absolute values stated in structure-activity text, method not specified, read-out: IC50
# [3] = class from IC50 values in assays of Examples 1, 2 or 3
# Chain of AKAP-PKA interaction (P13861 2-404 limits assumed): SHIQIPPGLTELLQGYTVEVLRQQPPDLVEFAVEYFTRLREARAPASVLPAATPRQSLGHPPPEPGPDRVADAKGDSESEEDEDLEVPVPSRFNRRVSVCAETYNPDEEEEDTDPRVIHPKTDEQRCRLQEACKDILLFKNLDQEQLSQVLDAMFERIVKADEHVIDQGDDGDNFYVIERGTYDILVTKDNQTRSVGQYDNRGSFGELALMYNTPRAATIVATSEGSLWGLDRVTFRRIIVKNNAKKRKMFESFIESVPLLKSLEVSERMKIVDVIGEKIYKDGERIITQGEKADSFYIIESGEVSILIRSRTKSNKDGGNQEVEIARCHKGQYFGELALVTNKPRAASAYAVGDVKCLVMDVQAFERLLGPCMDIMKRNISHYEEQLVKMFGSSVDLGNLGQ
Compound,IC50 [1] [µM],further results
"O=C1/C(=C/Nc2nc3cc(Cl)ccc3o2)Sc2ccccc21 [T2/5, (2Z)-2-[[(5-chloro-1,3-benzoxazole-2-yl)amino]methylene]benzothiophene-3-one]",250 to 750,–
"O=C1/C(=C/Nc2ncc[nH]2)Sc2ccccc21 [T2/1, (2Z)-2-[(1H-imidazole-2-ylamino)methylene]benzothiophene-3-one]",< 150,IC50 [2]: ~80 µM
"N=C(N)c1cnc(N/C=C2\Sc3ccccc3C2=O)s1 [T2/21, 2-[[(Z)-(3-oxobenzothiophen-2-ylidene)methyl]amino]thiazole-5-carboxamidine]",–,Activity (IC50 class) [3]: 2-[[(Z)-(3-oxobenzothiophen-2-ylidene)methyl]amino]thiazole-5-carboxamidine Activity: A/B
"O=C1/C(=C/Nc2nc3ccccc3[nH]2)Sc2ccccc21 [T2/2, (2Z)-2-[(1H-benzimidazole-2-ylamino)methylene]benzothiophene-3-one]",< 150,–
"O=C1/C(=C/Nc2ncc(Cl)s2)Sc2ccccc21 [T2/14, (2Z)-2-[[(5-chlorothiazole-2-yl)amino]methylene]benzothiophene-3-one]",< 150,–
"COC(=O)c1csc(N/C=C2\Sc3ccccc3C2=O)n1 [T2/18, 2-[[(z)-(3-oxobenzothiophene-2-ylidene)methyl]amino]thiazole-4-carboxylic acid methylester]",< 150,–
"O=C(O)c1cnc(N/C=C2\Sc3ccccc3C2=O)s1 [T2/16, 2-[[(z)-(3-oxobenzothiophene-2-ylidene)methyl]amino]thiazole-5-carboxylic acid]",< 250,–
"COC(=O)c1cnc(N/C=C2\Sc3ccccc3C2=O)s1 [T2/17, 2-[[(z)-(3-oxobenzothiophene-2-ylidene)methyl]amino]thiazole-5-carboxylic acid methylester]",–,Activity (IC50 class) [3]: 2-[[(z)-(3-oxobenzothiophene-2-ylidene)methyl]amino]thiazole-5-carboxylic acid methylester Activity: A(A)
"O=C(O)c1ccc(N/C=C2\Oc3ccccc3C2=O)cc1 [T2/58, 4-[[(z)-(3-oxobenzofuran-2-ylidene)methyl]amino]benzoic acid]",–,Activity (IC50 class) [3]: 4-[[(z)-(3-oxobenzofuran-2-ylidene)methyl]amino]benzoic acid Activity: B/C
"O=C1/C(=C/Nc2ccc(O)cc2)Sc2ccccc21 [VI, (2Z)-2-[(4-hydroxyanilino)methylene]benzothiophen-3-one, reference compound]",–,Activity in AKAP-PKA interaction assays (in words): could not be found to show significant reduction of AKAP-PKA interaction
"O=C1/C(=C/Nc2ncc(Br)s2)Sc2ccccc21 [T2/13, (2Z)-2-[[(5-bromothiazole-2-yl)amino]methylene]benzothiophene-3-one]",< 50,–
"O=C1/C(=C/Nc2ncc([N+](=O)[O-])s2)Sc2ccccc21 [T2/12, (2Z)-2-[[(5-nitrothiazole-2-yl)amino]methylene]benzothiophene-3-one]",< 25,IC50 [2]: 1 to 5 µM
"Cc1ccccc1N/C=C1/Sc2ccccc2C1=O [T3/4, (2E)-2-[(2-methylanilino)methylene]benzothiophen-3-one]",–,Activity in AKAP-PKA interaction assays (in words): abolished activity
"Cn1c(N/C=C2\Sc3ccccc3C2=O)nc2ccccc21 [T2/3, (2Z)-2-[[(1-methylbenzimidazole-2-yl)amino]methylene]benzothiophene-3-one]",< 150,–
"O=C1/C(=C/Nc2nccs2)Sc2ccccc21 [T2/6, (2Z)-2-[(thiazole-2-ylamino)methylene]benzothiophene-3-one]",< 150,IC50 [2]: ~80 µM
"Cc1csc(N/C=C2\Sc3ccccc3C2=O)n1 [T2/10, (2Z)-2-[[(4-methylthiazole-2-yl)amino]methylene]benzothiophene-3-one]",–,IC50 relative to that of the unsubstituted mother compound (alkyl substituent on heteroaromatic pentacycle): about 50%

# The next lines start with results.
IC50 [1] [µM],Compound,further results
250 to 750,"O=C1/C(=C/Nc2cc([N+](=O)[O-])ccc2O)Sc2ccccc21 [T2/35, (2Z)-2-[(2-hydroxy-5-nitro-anilino)methylene]benzothiophene-3-one]",–
< 25,"O=C1/C(=N/Nc2nccs2)Sc2ccccc21 [T2/50, (2Z)-2-(thiazole-2-ylhydrazono)benzothiophene-3-one]",–
< 150,"NC(=O)c1cnc(N/C=C2\Sc3ccccc3C2=O)s1 [T2/19, 2-[[(z)-(3-oxobenzothiophene-2-ylidene)methyl]amino]thiazole-5-carboxylic acid amide]",–
< 250,"O=C1/C(=C/Nc2ncccn2)Sc2ccccc21 [T2/49, (2Z)-2-[(pyrimidine-2-ylamino)methylene]benzothiophene-3-one]",–
< 250,"CNC(=O)c1cnc(N/C=C2\Sc3ccccc3C2=O)s1 [T2/20, n-methyl-2-[[(z)-(3-oxobenzothiophene-2-ylidene)methyl]amino]thiazole-5-carboxylic acid amide]",–
< 150,"O=C1/C(=C/Nc2nc3ccc(Br)cc3s2)Sc2ccccc21 [T2/28, (2Z)-2-[[(6-bromo-1,3-benzothiazole-2-yl)amino]methylene]benzothiophene-3-one]",–
< 150,"O=C1/C(=C/Nc2nncs2)Sc2ccccc21 [T2/31, (2Z)-2-[(1,3,4-thiadiazol-2-ylamino)methylene]benzothiophene-3-one]",–
250 to 750,"O=C1/C(=C\Nc2cccc3ccccc23)Sc2ccccc21 [T2/39, (2e)-2-[(1-naphthylamino)methylene]benzothiophene-3-one]",Activity in AKAP-PKA interaction assays (in words): barely detectable activity
< 150,"O=C1/C(=C/Nc2ccccc2[N+](=O)[O-])Sc2ccccc21 [T2/33, (2Z)-2-[(2-nitroanilino)methylene]benzothiophene-3-one]",–
250 to 750,"O=C1/C(=C/Nc2cccc(Br)c2)Sc2ccccc21 [T2/37, (2Z)-2-[(3-bromoanilino)methylene]benzothiophene-3-one]",–
< 150,"O=C1/C(=C/Nc2nnc(Br)s2)Sc2ccccc21 [T2/32, (2Z)-2-[[(5-bromo-1,3,4-thiadiazol-2-yl)amino]methylene]benzothiophene-3-one]",–
250 to 750,"O=C1/C(=C/Nc2nc3ccccc3s2)Oc2ccccc21 [T2/57, (2Z)-2-[(1,3-benzothiazole-2-ylamino)methylene]benzofuran-3-one]",–
250 to 750,"O=C1/C(=C/Nc2nc3ccc(C(F)(F)F)cc3s2)Sc2ccccc21 [T2/27, (2Z)-2-[[[6-(trifluoromethyl)-1,3-benzothiazole-2-yl]amino]methylene]benzothiophene-3-one]",–
< 250,"O=C1/C(=C/Nc2nc3ccc([N+](=O)[O-])cc3s2)Sc2ccccc21 [T2/25, (2Z)-2-[[(6-nitro-1,3-benzothiazole-2-yl)amino]methylene]benzothiophene-3-one]",–
250 to 750,"O=C1/C(=C/Nc2ncc3ccccc3n2)Sc2ccccc21 [T2/42, (2Z)-2-[(chinazolin-2-ylamino)methylene]benzothiophene-3-one]",–
250 to 750,"O=C1/C(=C\Nc2ccc([N+](=O)[O-])cc2)Sc2ccccc21 [T2/34, (2e)-2-[(4-nitroanilino)methylene]benzothiophene-3-one]",–
250 to 750,"O=C1/C(=C/Nc2ccc3scnc3c2)Sc2ccccc21 [T2/29, (2Z)-2-[(1,3-benzothiazole-5-ylamino)methylene]benzothiophene-3-one]",–
< 25,"O=C1/C(=N/Nc2ncc([N+](=O)[O-])s2)Sc2ccccc21 [T2/52, (2Z)-2-[(5-nitrothiazole-2-yl)hydrazono]benzothiophene-3-one]",–
< 150,"O=C(O)c1ccc(N/C=C2\Cc3ccccc3C2=O)cc1 [T2/56, 4-[[(e)-(1-oxoindan-2-ylidene)methyl]amino]benzoic acid]",–
